Read-outs that look alike come from different tables or passages of the source.
Experiments:
Format in all cases: cell-based
[1] = tested on: Corynebacterium glutamicum ATCC13032; assay: Bacterial growth in microscale cultivation, C. glutamicum; settings: relative to control; for activity at 0.4 µM / activity at 4 µM / activity at 40 µM: Corynebacterium glutamicum
How it was run: (§1)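 In a BioLector microscale system shaken at 1200 rpm, growth was tracked by backscatter at 620 nm, and final signal, growth rate (h⁻¹) and lag-phase length were scored against DMSO-only controls. Starting OD600 was 0.5, or 0.25 for B. subtilis. Inhibitors came from DMSO stocks, with trans-chalcone capped at 400 μM and 2'-hydroxychalcone at 100 μM.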

[2] = tested on: Escherichia coli K-12 MG1655; assay: Bacterial growth in microscale cultivation, E. coli; settings: relative to control; for activity at 0.4 µM / activity at 4 µM / activity at 40 µM: Escherichia coli
How it was run: as §1

[3] = tested on: Pseudomonas putida KT2440; assay: Bacterial growth in microscale cultivation, P. putida; settings: relative to control; for activity at 0.4 µM / activity at 4 µM / activity at 40 µM: Pseudomonas putida
How it was run: as §1

Bacillus subtilis 168 = assay: Bacterial growth in microscale cultivation, B. subtilis; settings: relative to control
How it was run: as §1

O=C(/C=C/c1ccc(O)c(O)c1)c1ccc(O)cc1O [Compound 8, 2′,4′,3,4-Tetrahydroxy-chalcone]
activity at 0.4 µM ([1]; ATCC13032, complex medium, 0.4 µM, read-out: Final Backscatter): 96.6%
activity at 0.4 µM ([1]; ATCC13032, complex medium, 0.4 µM, read-out: Growth rate): 114%
activity at 4 µM ([1]; ATCC13032, complex medium, 4 µM, read-out: Final Backscatter): 107%
activity at 4 µM ([1]; ATCC13032, complex medium, 4 µM, read-out: Growth rate): 134%
activity at 40 µM ([1]; ATCC13032, complex medium, 40 µM, read-out: Final Backscatter): 108%
activity at 40 µM ([1]; ATCC13032, complex medium, 40 µM, read-out: Growth rate): 129%
activity at 0.4 µM ([1]; ATCC13032, minimal medium, 0.4 µM, read-out: Final Backscatter): 99%
activity at 0.4 µM ([1]; ATCC13032, minimal medium, 0.4 µM, read-out: Growth rate): 103%
activity at 4 µM ([1]; ATCC13032, minimal medium, 4 µM, read-out: Final Backscatter): 101%
activity at 4 µM ([1]; ATCC13032, minimal medium, 4 µM, read-out: Growth rate): 96.6%
activity at 40 µM ([1]; ATCC13032, minimal medium, 40 µM, read-out: Final Backscatter): 103%
activity at 40 µM ([1]; ATCC13032, minimal medium, 40 µM, read-out: Growth rate): 102%
Lag Phase ([1]; complex medium, 0.4 µM): 109,9%
Lag Phase ([1]; complex medium, 4 µM): 95,4%
Lag Phase ([1]; complex medium, 40 µM): 84,9%
Lag Phase ([1]; minimal medium, 0.4 µM): 99,3%
Lag Phase ([1]; minimal medium, 4 µM): 98,6%
Lag Phase ([1]; minimal medium, 40 µM): 100,7%
activity at 0.4 µM ([2]; MG1655, complex medium, 0.4 µM, read-out: Final Backscatter): 98.9%
activity at 0.4 µM ([2]; MG1655, complex medium, 0.4 µM, read-out: Growth rate): 102%
activity at 4 µM ([2]; MG1655, complex medium, 4 µM, read-out: Final Backscatter): 102%
activity at 4 µM ([2]; MG1655, complex medium, 4 µM, read-out: Growth rate): 95%
activity at 40 µM ([2]; MG1655, complex medium, 40 µM, read-out: Final Backscatter): 95.7%
activity at 40 µM ([2]; MG1655, complex medium, 40 µM, read-out: Growth rate): 89.4%
activity at 0.4 µM ([2]; MG1655, minimal medium, 0.4 µM, read-out: Final Backscatter): 92.9%
activity at 0.4 µM ([2]; MG1655, minimal medium, 0.4 µM, read-out: Growth rate): 83.9%
activity at 4 µM ([2]; MG1655, minimal medium, 4 µM, read-out: Final Backscatter): 94.1%
activity at 4 µM ([2]; MG1655, minimal medium, 4 µM, read-out: Growth rate): 86.4%
activity at 40 µM ([2]; MG1655, minimal medium, 40 µM, read-out: Final Backscatter): 96.6%
activity at 40 µM ([2]; MG1655, minimal medium, 40 µM, read-out: Growth rate): 85.3%
Lag Phase ([2]; complex medium, 0.4 µM): 103,3%
Lag Phase ([2]; complex medium, 4 µM): 96,7%
Lag Phase ([2]; complex medium, 40 µM): 100,0%
Lag Phase ([2]; minimal medium, 0.4 µM): 96,2%
Lag Phase ([2]; minimal medium, 4 µM): 98,1%
Lag Phase ([2]; minimal medium, 40 µM): 98,1%
activity at 0.4 µM ([3]; KT2440, complex medium, 0.4 µM, read-out: Final Backscatter): 94.7%
activity at 0.4 µM ([3]; KT2440, complex medium, 0.4 µM, read-out: Growth rate): 90.8%
activity at 4 µM ([3]; KT2440, complex medium, 4 µM, read-out: Final Backscatter): 97%
activity at 4 µM ([3]; KT2440, complex medium, 4 µM, read-out: Growth rate): 97.4%
activity at 40 µM ([3]; KT2440, complex medium, 40 µM, read-out: Final Backscatter): 94.9%
activity at 40 µM ([3]; KT2440, complex medium, 40 µM, read-out: Growth rate): 95.3%
activity at 0.4 µM ([3]; KT2440, minimal medium, 0.4 µM, read-out: Final Backscatter): 87%
activity at 0.4 µM ([3]; KT2440, minimal medium, 0.4 µM, read-out: Growth rate): 83.7%
activity at 4 µM ([3]; KT2440, minimal medium, 4 µM, read-out: Final Backscatter): 89.8%
activity at 4 µM ([3]; KT2440, minimal medium, 4 µM, read-out: Growth rate): 89%
activity at 40 µM ([3]; KT2440, minimal medium, 40 µM, read-out: Final Backscatter): 94.8%
activity at 40 µM ([3]; KT2440, minimal medium, 40 µM, read-out: Growth rate): 90%
Lag Phase ([3]; complex medium, 0.4 µM): 92,6%
Lag Phase ([3]; complex medium, 4 µM): 93,2%
Lag Phase ([3]; complex medium, 40 µM): 96,3%
Lag Phase ([3]; minimal medium, 0.4 µM): 99,6%
Lag Phase ([3]; minimal medium, 4 µM): 99,6%
Lag Phase ([3]; minimal medium, 40 µM): 98,5%
activity at 0.4 µM (Bacillus subtilis 168; Bacillus subtilis, 168, complex medium, 0.4 µM, read-out: Final Backscatter): 98.1%
activity at 0.4 µM (Bacillus subtilis 168; Bacillus subtilis, 168, complex medium, 0.4 µM, read-out: Growth rate): 98.2%
activity at 4 µM (Bacillus subtilis 168; Bacillus subtilis, 168, complex medium, 4 µM, read-out: Final Backscatter): 100%
activity at 4 µM (Bacillus subtilis 168; Bacillus subtilis, 168, complex medium, 4 µM, read-out: Growth rate): 111%
activity at 40 µM (Bacillus subtilis 168; Bacillus subtilis, 168, complex medium, 40 µM, read-out: Final Backscatter): 98.9%
activity at 40 µM (Bacillus subtilis 168; Bacillus subtilis, 168, complex medium, 40 µM, read-out: Growth rate): 109%
activity at 0.4 µM (Bacillus subtilis 168; Bacillus subtilis, 168, minimal medium, 0.4 µM, read-out: Final Backscatter): 85.1%
activity at 0.4 µM (Bacillus subtilis 168; Bacillus subtilis, 168, minimal medium, 0.4 µM, read-out: Growth rate): 106%
activity at 4 µM (Bacillus subtilis 168; Bacillus subtilis, 168, minimal medium, 4 µM, read-out: Final Backscatter): 92.1%
activity at 4 µM (Bacillus subtilis 168; Bacillus subtilis, 168, minimal medium, 4 µM, read-out: Growth rate): 105%
activity at 40 µM (Bacillus subtilis 168; Bacillus subtilis, 168, minimal medium, 40 µM, read-out: Final Backscatter): 94.2%
activity at 40 µM (Bacillus subtilis 168; Bacillus subtilis, 168, minimal medium, 40 µM, read-out: Growth rate): 95.7%
Lag Phase (Bacillus subtilis 168; complex medium, 0.4 µM): 98,3%
Lag Phase (Bacillus subtilis 168; complex medium, 4 µM): 86,5%
Lag Phase (Bacillus subtilis 168; complex medium, 40 µM): 105,1%
Lag Phase (Bacillus subtilis 168; minimal medium, 0.4 µM): 107,5%
Lag Phase (Bacillus subtilis 168; minimal medium, 4 µM): 110,3%
Lag Phase (Bacillus subtilis 168; minimal medium, 40 µM): 90,4%

— publication PMC4893628, “Chalcone-based Selective Inhibitors of a C4 Plant Key Enzyme as Novel Potential Herbicides” (Scientific Reports, 2016)
